Test results as given in PubChem BioAssay (NCI).
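Five concentrations, 48 hours, 96-well plates. The concentration for 50% growth inhibition is given as GI50. TGI: total growth inhibition.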

Key:
Assay in all cases: NCI-60 cell line screen, 48 h
786-0 renal = tested on: 786-0 renal
A498 renal = tested on: A498 renal
A549 NSCLC = tested on: A549 NSCLC
ACHN renal = tested on: ACHN renal
BT-549 breast = tested on: BT-549 breast
CAKI-1 renal = tested on: CAKI-1 renal
CCRF-CEM leukemia = tested on: CCRF-CEM leukemia
COLO 205 colon = tested on: COLO 205 colon
EKVX NSCLC = tested on: EKVX NSCLC
HCC-2998 colon = tested on: HCC-2998 colon
HCT-116 colon = tested on: HCT-116 colon
HCT-15 colon = tested on: HCT-15 colon
HL-60(TB) leukemia = tested on: HL-60(TB) leukemia
HOP-62 NSCLC = tested on: HOP-62 NSCLC
HOP-92 NSCLC = tested on: HOP-92 NSCLC
HS 578T breast = tested on: HS 578T breast
HT29 colon = tested on: HT29 colon
IGROV1 ovarian = tested on: IGROV1 ovarian
K-562 leukemia = tested on: K-562 leukemia
KM12 colon = tested on: KM12 colon
LOX IMVI melanoma = tested on: LOX IMVI melanoma
M14 melanoma = tested on: M14 melanoma
MALME-3M melanoma = tested on: MALME-3M melanoma
MCF7 breast = tested on: MCF7 breast
MDA-MB-231 breast = tested on: MDA-MB-231 breast
MDA-MB-435 = tested on: MDA-MB-435
MOLT-4 leukemia = tested on: MOLT-4 leukemia
NCI-H226 lung = tested on: NCI-H226 lung
NCI-H23 lung = tested on: NCI-H23 lung
NCI-H460 lung = tested on: NCI-H460 lung
NCI-H522 lung = tested on: NCI-H522 lung
NCI/ADR-RES ovarian = tested on: NCI/ADR-RES ovarian
OVCAR-3 ovarian = tested on: OVCAR-3 ovarian
OVCAR-4 ovarian = tested on: OVCAR-4 ovarian
OVCAR-5 ovarian = tested on: OVCAR-5 ovarian
OVCAR-8 ovarian = tested on: OVCAR-8 ovarian
PC-3 prostate = tested on: PC-3 prostate
RPMI-8226 leukemia = tested on: RPMI-8226 leukemia
RXF 393 renal = tested on: RXF 393 renal
SF-268 CNS = tested on: SF-268 CNS
SF-295 CNS = tested on: SF-295 CNS
SF-539 CNS = tested on: SF-539 CNS
SK-MEL-2 melanoma = tested on: SK-MEL-2 melanoma
SK-MEL-28 melanoma = tested on: SK-MEL-28 melanoma
SK-MEL-5 melanoma = tested on: SK-MEL-5 melanoma
SK-OV-3 ovarian = tested on: SK-OV-3 ovarian
SN12C renal = tested on: SN12C renal
SNB-19 CNS = tested on: SNB-19 CNS
SNB-75 CNS = tested on: SNB-75 CNS
SW-620 colon = tested on: SW-620 colon
T-47D breast = tested on: T-47D breast
TK-10 renal = tested on: TK-10 renal
U251 CNS = tested on: U251 CNS
UACC-257 melanoma = tested on: UACC-257 melanoma
UACC-62 melanoma = tested on: UACC-62 melanoma
UO-31 renal = tested on: UO-31 renal

Q: With `COc1ccc(OC)c(/C=C/C(=O)N/N=C/c2ccccc2)c1` as the molecule, how does the GI50 (786-0 renal) read?
A: 7 µM

Q: And the TGI (786-0 renal)?
A: 72.5 µM

Q: What about the GI50 (A498 renal) of the same molecule?
A: 12 µM

Q: What about the TGI (A498 renal) of the same molecule?
A: > 100 µM

Q: And the GI50 (A549 NSCLC)?
A: 4.29 µM

Q: And the TGI (A549 NSCLC)?
A: > 100 µM

Q: What about the GI50 (ACHN renal) of the same molecule?
A: 9.66 µM

Q: And the TGI (ACHN renal)?
A: > 100 µM

Q: And the GI50 (BT-549 breast)?
A: 4.05 µM

Q: What about the TGI (BT-549 breast) of the same molecule?
A: 90.4 µM

Q: What about the GI50 (CAKI-1 renal) of the same molecule?
A: 0.443 µM

Q: And the TGI (CAKI-1 renal)?
A: 6.66 µM

Q: What about the GI50 (CCRF-CEM leukemia) of the same molecule?
A: 3.97 µM

Q: And the TGI (CCRF-CEM leukemia)?
A: > 100 µM

Q: What about the GI50 (COLO 205 colon) of the same molecule?
A: 4.8 µM

Q: And the TGI (COLO 205 colon)?
A: 35.1 µM

Q: And the GI50 (EKVX NSCLC)?
A: 1.59 µM

Q: And the TGI (EKVX NSCLC)?
A: 59.5 µM

Q: And the GI50 (HCC-2998 colon)?
A: 2.35 µM

Q: What about the TGI (HCC-2998 colon) of the same molecule?
A: 21 µM

Q: What about the GI50 (HCT-116 colon) of the same molecule?
A: 2.64 µM

Q: What about the TGI (HCT-116 colon) of the same molecule?
A: 10.2 µM

Q: What about the GI50 (HCT-15 colon) of the same molecule?
A: 3.62 µM

Q: And the TGI (HCT-15 colon)?
A: > 100 µM

Q: And the GI50 (HL-60(TB) leukemia)?
A: 2.03 µM

Q: What about the TGI (HL-60(TB) leukemia) of the same molecule?
A: 13.7 µM

Q: What about the GI50 (HOP-62 NSCLC) of the same molecule?
A: 4.95 µM

Q: And the TGI (HOP-62 NSCLC)?
A: > 100 µM

Q: What about the GI50 (HOP-92 NSCLC) of the same molecule?
A: 1.56 µM

Q: And the TGI (HOP-92 NSCLC)?
A: 13.3 µM

Q: And the GI50 (HS 578T breast)?
A: 9.07 µM

Q: What about the TGI (HS 578T breast) of the same molecule?
A: > 100 µM

Q: What about the GI50 (HT29 colon) of the same molecule?
A: 2.1 µM

Q: And the TGI (HT29 colon)?
A: > 100 µM

Q: And the GI50 (IGROV1 ovarian)?
A: 1.51 µM

Q: What about the TGI (IGROV1 ovarian) of the same molecule?
A: > 100 µM

Q: And the GI50 (K-562 leukemia)?
A: 0.488 µM

Q: And the TGI (K-562 leukemia)?
A: > 100 µM

Q: What about the GI50 (KM12 colon) of the same molecule?
A: 0.834 µM

Q: What about the TGI (KM12 colon) of the same molecule?
A: 3.75 µM

Q: What about the GI50 (LOX IMVI melanoma) of the same molecule?
A: 4.12 µM

Q: What about the TGI (LOX IMVI melanoma) of the same molecule?
A: > 100 µM

Q: And the GI50 (M14 melanoma)?
A: 2.16 µM

Q: And the TGI (M14 melanoma)?
A: 6.77 µM

Q: What about the GI50 (MALME-3M melanoma) of the same molecule?
A: 2.12 µM

Q: What about the TGI (MALME-3M melanoma) of the same molecule?
A: > 100 µM

Q: What about the GI50 (MCF7 breast) of the same molecule?
A: 3.79 µM

Q: What about the TGI (MCF7 breast) of the same molecule?
A: > 100 µM

Q: And the GI50 (MDA-MB-231 breast)?
A: 7.24 µM

Q: What about the TGI (MDA-MB-231 breast) of the same molecule?
A: > 100 µM

Q: And the GI50 (MDA-MB-435)?
A: 0.283 µM

Q: What about the TGI (MDA-MB-435) of the same molecule?
A: 1.98 µM

Q: What about the GI50 (MOLT-4 leukemia) of the same molecule?
A: 4.45 µM

Q: And the TGI (MOLT-4 leukemia)?
A: > 100 µM

Q: And the GI50 (NCI-H226 lung)?
A: 30.8 µM

Q: What about the TGI (NCI-H226 lung) of the same molecule?
A: > 100 µM

Q: What about the GI50 (NCI-H23 lung) of the same molecule?
A: 5.4 µM

Q: And the TGI (NCI-H23 lung)?
A: 87 µM

Q: What about the GI50 (NCI-H460 lung) of the same molecule?
A: 2.07 µM

Q: What about the TGI (NCI-H460 lung) of the same molecule?
A: 5.62 µM

Q: And the GI50 (NCI-H522 lung)?
A: 1.57 µM

Q: And the TGI (NCI-H522 lung)?
A: 41.7 µM

Q: What about the GI50 (NCI/ADR-RES ovarian) of the same molecule?
A: 1.46 µM

Q: What about the TGI (NCI/ADR-RES ovarian) of the same molecule?
A: 4.29 µM

Q: What about the GI50 (OVCAR-3 ovarian) of the same molecule?
A: 3.15 µM

Q: And the TGI (OVCAR-3 ovarian)?
A: > 100 µM

Q: What about the GI50 (OVCAR-4 ovarian) of the same molecule?
A: 14.3 µM

Q: And the TGI (OVCAR-4 ovarian)?
A: > 100 µM

Q: What about the GI50 (OVCAR-5 ovarian) of the same molecule?
A: 18 µM

Q: What about the TGI (OVCAR-5 ovarian) of the same molecule?
A: > 100 µM

Q: And the GI50 (OVCAR-8 ovarian)?
A: 5.44 µM

Q: What about the TGI (OVCAR-8 ovarian) of the same molecule?
A: 94.6 µM

Q: What about the GI50 (PC-3 prostate) of the same molecule?
A: 5.86 µM

Q: What about the TGI (PC-3 prostate) of the same molecule?
A: 52.1 µM

Q: What about the GI50 (RPMI-8226 leukemia) of the same molecule?
A: 2.99 µM

Q: And the TGI (RPMI-8226 leukemia)?
A: 9.96 µM

Q: And the GI50 (RXF 393 renal)?
A: 3.9 µM

Q: What about the TGI (RXF 393 renal) of the same molecule?
A: 26.6 µM

Q: And the GI50 (SF-268 CNS)?
A: 7.56 µM

Q: And the TGI (SF-268 CNS)?
A: > 100 µM

Q: What about the GI50 (SF-295 CNS) of the same molecule?
A: 1 µM

Q: And the TGI (SF-295 CNS)?
A: 11.1 µM

Q: And the GI50 (SF-539 CNS)?
A: 4.42 µM

Q: What about the TGI (SF-539 CNS) of the same molecule?
A: 25.1 µM

Q: And the GI50 (SK-MEL-2 melanoma)?
A: 2.98 µM

Q: What about the TGI (SK-MEL-2 melanoma) of the same molecule?
A: 9.32 µM

Q: And the GI50 (SK-MEL-28 melanoma)?
A: 8.89 µM

Q: What about the TGI (SK-MEL-28 melanoma) of the same molecule?
A: > 100 µM

Q: What about the GI50 (SK-MEL-5 melanoma) of the same molecule?
A: 2.95 µM

Q: And the TGI (SK-MEL-5 melanoma)?
A: 14.6 µM

Q: What about the GI50 (SK-OV-3 ovarian) of the same molecule?
A: 12 µM

Q: And the TGI (SK-OV-3 ovarian)?
A: > 100 µM

Q: And the GI50 (SN12C renal)?
A: 4.17 µM

Q: What about the TGI (SN12C renal) of the same molecule?
A: 39.9 µM

Q: And the GI50 (SNB-19 CNS)?
A: 4.12 µM

Q: What about the TGI (SNB-19 CNS) of the same molecule?
A: > 100 µM

Q: What about the GI50 (SNB-75 CNS) of the same molecule?
A: 4.39 µM

Q: What about the TGI (SNB-75 CNS) of the same molecule?
A: 37.3 µM

Q: And the GI50 (SW-620 colon)?
A: 1.5 µM

Q: What about the TGI (SW-620 colon) of the same molecule?
A: 6.23 µM

Q: And the GI50 (T-47D breast)?
A: 4.86 µM

Q: And the TGI (T-47D breast)?
A: > 100 µM

Q: And the GI50 (TK-10 renal)?
A: 16.6 µM

Q: And the TGI (TK-10 renal)?
A: > 100 µM

Q: And the GI50 (U251 CNS)?
A: 3.68 µM

Q: And the TGI (U251 CNS)?
A: > 100 µM

Q: And the GI50 (UACC-257 melanoma)?
A: 5.76 µM

Q: And the TGI (UACC-257 melanoma)?
A: 33.6 µM

Q: And the GI50 (UACC-62 melanoma)?
A: 3.55 µM

Q: And the TGI (UACC-62 melanoma)?
A: 75.8 µM

Q: What about the GI50 (UO-31 renal) of the same molecule?
A: 5.9 µM

Q: What about the TGI (UO-31 renal) of the same molecule?
A: 85.5 µM
